Data from patent publication US9353423B2, “HCV genotype 6 replicons” (priority 2012, dated 2016).
Where two headings read alike, the source gives them in different places.

Assays:
Pi-GT1b-Rluc replicon = assay: Replicon antiviral assay, transient transfection, luciferase activity (GT1b); format: cell-based, Hepatitis C virus genotype 1b; conditions: Hepatitis C virus
Procedure: (§1) Replicon RNA were electroporated into 1C cells as described above. After transfection, cells were quickly transferred into 100 mL of pre-warmed culture medium, and 90 μl was seeded in 384-well plates at a density of 2,000 cells/well. Cells were treated with three-fold serial drug dilutions at 10 different concentrations. Cell plates were incubated at 37° C. for 3 days, after which culture medium was removed and cells were assayed for luciferase activity as markers for replicon levels. Luciferase expression was quantified using a commercial luciferase assay (Promega). Luciferase levels were converted into percentages relative to the levels in the untreated controls (defined as 100%), and data were fitted to the logistic dose-response equation y=a/[1+(x/b)^c] using XLFit4 software (IDBS, Emeryville, Calif.).
(§2) Five different classes of HCV inhibitors as listed in the first column were evaluated for their antiviral activities against Pi-GT6a-Rluc and Pi-GT1b-Rluc replicons in a high throughput 384-well transient transfection assay, by measuring luciferase activity (Table 5). The data represents an average of at least two independent experiments with standard deviations.

Pi-GT6a-Rluc replicon = assay: Replicon antiviral assay, luciferase-encoding GT6a replicon (Table 4); format: cell-based, Hepatitis C virus genotype 6a; conditions: for EC50: Hepatitis C virus, GT6A, 72 h, read-out: GT6a EC50
Procedure: as §1

GT6aRluc-K272R replicon = assay: Replicon antiviral assay, transient transfection, luciferase activity (GT6a, NS3 K272R); format: cell-based, Hepatitis C virus genotype 6a; conditions: for EC50: Hepatitis C virus, 1C cells, 384-well transient transfection, mean ± SD of at least two experiments
Procedure: as §1, §2

GT6aRluc-K34R replicon = assay: Replicon antiviral assay, transient transfection, luciferase activity (GT6a, NS4A K34R); format: cell-based, Hepatitis C virus genotype 6a; conditions: for EC50: Hepatitis C virus, 1C cells, 384-well transient transfection, mean ± SD of at least two experiments
Procedure: as §1, §2

[1] = 72 h, Table 4, 1C cells, 384-well, 3 days, mean ± SD, read-out: GT1b EC50
[2] = Table 5, 1C cells, 384-well transient transfection, mean ± SD of at least two experiments, read-out: GT1bRluc EC50
[3] = Table 4, 1C cells, 384-well, 3 days, mean ± SD, adaptive mutation not stated
[4] = Table 5, read-out: GT6aRluc-K272R EC50
[5] = Table 5, read-out: GT6aRluc-K34R EC50
[6] = read-out: GT6aRluc-K272R EC50, Table 5
[7] = read-out: GT6aRluc-K34R EC50, Table 5

Row | SMILES | EC50 (Pi-GT1b-Rluc replicon; [1]) | EC50 (Pi-GT1b-Rluc replicon; [2]) | EC50 (Pi-GT6a-Rluc replicon; [3]) | GT6a/GT1b EC50 ratio (Pi-GT6a-Rluc replicon; Table 4) | EC50 (GT6aRluc-K272R replicon; [4]) | GT6a(K272R)/1b EC50 ratio (GT6aRluc-K272R replicon; Table 5) | EC50 (GT6aRluc-K34R replicon; [5]) | GT6a(K34R)/1b EC50 Ratio (GT6aRluc-K34R replicon; Table 5) | EC50 (GT6aRluc-K272R replicon; [6]) | EC50 (GT6aRluc-K34R replicon; [7]) | EC50 (Pi-GT6a-Rluc replicon) | antiviral activity against GT6a compared with GT1b (Pi-GT6a-Rluc replicon; summary of Table 4)
1 | CC(C)OC(=O)[C@H](C)N[P@](=O)(OC[C@H]1O[C@@H](n2ccc(=O)[nH]c2=O)[C@](C)(F)[C@@H]1O)Oc1ccccc1 [Sofosbuvir, sofosbuvir] | 39 ± 1.1 nM | 39 ± 1.1 nM | 14 ± 4.1 nM | 0.4 | 14 ± 5 nM | 0.4 | 14 ± 4 nM | 0.4 | – | – | – | –
2 | CCC[C@H](NC(=O)[C@@H]1[C@H]2CCC[C@H]2CN1C(=O)[C@@H](NC(=O)[C@@H](NC(=O)c1cnccn1)C1CCCCC1)C(C)(C)C)C(=O)C(=O)NC1CC1 [Telaprevir] | 428 ± 22 nM | 428 ± 22 nM | 349 ± 20 nM | 0.8 | 208 ± 41 nM | 0.5 | 349 ± 20 nM | 0.8 | – | – | – | –
3 | CC1=CC[C@H](C(=O)N(c2cc(C#CC(C)(C)C)sc2C(=O)O)[C@H]2CC[C@](O)(CO[C@H]3CCOC3)CC2)CC1 [Compound C] | 3.5 ± 0.3 nM | 3.5 ± 0.3 nM | 877 ± 4 nM | 251 | 736 ± 18 nM | 210.3 | 877 ± 4 nM | 250.6 | – | – | – | –
4 | COc1ccc2c(O[C@@H]3C[C@H]4C(=O)N[C@]5(C(=O)O)C[C@H]5/C=C\CCCCC[C@H](NC(=O)OC5CCCC5)C(=O)N4C3)cc(-c3csc(NC(C)C)n3)nc2c1 [BILN-2061] | – | 0.99 ± 0.1 nM | – | – | – | 17.2 | – | 17.2 | 17 nM | 17 ± 9 nM | – | –
5 | CC(C)(C)NC(=O)N[C@H](C(=O)N1C[C@H]2[C@@H]([C@H]1C(=O)NC(CC1CCC1)C(=O)C(N)=O)C2(C)C)C(C)(C)C (some centres unmarked) [Boceprevir, boceprevir] | 188 ± 42 nM | 181 ± 42 nM | 177 ± 21 nM | 0.9 | – | 1 | – | 0.9 | 185 ± 42 nM | 168 ± 21 nM | – | –
6 | CN(C)CCN(C)[C@H]1COc2ccccc2-c2c(C3CCCCC3)c3ccc(C(=O)O)cc3n2C1 [MK-3281] | – | 534 ± 47 nM | – | – | 1310 ± 635 nM | 2.5 | 1280 ± 471 nM | 2.4 | – | – | – | –
7 | C=C[C@@H]1C[C@]1(NC(=O)[C@@H]1C[C@@H]2CN1C(=O)[C@H](C(C)(C)C)NC(=O)O[C@@H]1C[C@H]1CCCCCc1nc3ccc(OC)cc3nc1O2)C(=O)NS(=O)(=O)C1CC1 [MK-5172] | 0.74 ± 0.07 nM | 0.74 ± 0.07 nM | – | 3.1 | 3 ± 0.4 nM | 4.1 | 1.4 ± 0.3 nM | 1.9 | – | – | 2.3 ± 0.3 nM | –
8 | CNC(=O)c1c(-c2ccc(F)cc2)oc2cc(N(CCO)S(C)(=O)=O)c(C3CC3)cc12 [HCV-796] | 20 ± 5.5 nM | 20 ± 5.5 nM | 21 ± 0.5 nM | 1.0 | 21 nM | 1.1 | 21 nM | 1.1 | – | – | – | retained activity against GT6a
9 | COC(=O)N[C@H](C(=O)N1CC2(CC2)C[C@H]1c1nc(-c2ccc3c(c2)C(F)(F)c2cc(-c4ccc5cc([C@@H]6[C@H]7CC[C@H](C7)N6C(=O)[C@@H](NC(=O)OC)C(C)C)[nH]c5c4)ccc2-3)c[nH]1)C(C)C [Compound B] | 0.007 ± 0.003 nM | – | 0.79 ± 0.05 nM | 113 | – | – | – | – | – | – | – | –
10 | CCc1cc(CC[C@]2(C3CCCC3)CC(O)=C(Cc3nc4nc(C)cc(C)n4n3)C(=O)O2)cc(CC)n1 [Filibuvir, filibuvir] | 112 ± 13 nM | 112 ± 13 nM | – | 32 | 3540 ± 93 nM | 31.6 | > 4440 nM | >40 | – | – | 3540 ± 93 nM | –
11 | Fc1ccccc1-c1nc2ccn(Cc3ccc(-c4ccc(C(F)(F)F)cc4C(F)(F)F)nn3)cc-2n1 [Tegobuvir, tegobuvir] | 2.6 ± 0.2 nM | 2.6 ± 0.2 nM | 119 ± 6 nM | 46 | 110 ± 21 nM | 42.3 | 119 ± 6 nM | 45.8 | – | – | – | –
12 | CCC1C[C@]1(NC(=O)[C@@H]1C[C@@H](Oc2cc(-c3csc(NC(C)C)n3)nc3c(Cl)c(OCCN4CCOCC4)ccc23)CN1C(=O)[C@@H](NC(=O)O[C@@H]1C[C@@H]2C[C@@H]2C1)C(C)(C)C)C(=O)O (some centres unmarked) [Compound A] | 8.3 ± 1.6 nM | – | 72 ± 25 nM | 8.7 | – | – | – | – | – | – | – | –
13 | COC(=O)N[C@H](C(=O)N1CCC[C@H]1c1nc(-c2ccc(-c3ccc(-c4c[nH]c([C@@H]5CCCN5C(=O)[C@@H](NC(=O)OC)C(C)C)n4)cc3)cc2)c[nH]1)C(C)C [Daclatasvir, daclatasvir] | 0.034 ± 0.018 nM | 0.034 ± 0.018 nM | 0.06 ± 0.03 nM | 1.8 | 0.08 ± 0.04 nM | 2.4 | 0.04 ± 0.01 nM | 1.2 | – | – | – | –
